Measurements reported in US12390447B2, “Sirtuin 6 protein deacylase (SIRT6) activators” (Wisconsin Alumni Research Foundation, priority 2019, dated 2025).

Columns and labels:
[1] = Micelle formation with fluorescent membrane probe diphenylhexatriene (DPH); format: physicochemical
SIRT6 [2] = target: T1, SIRT6 (Homo sapiens, UniProt Q8N6T7); assay: Steady-state kinetic analysis of SIRT6 deacetylation (Michaelis-Menten); format: biochemical; settings: in the presence of 100 μM CL4, 50 μM TTNPB, 50 μM LPA or 50 μM LGly
T1 sequence (Q8N6T7 whole entry): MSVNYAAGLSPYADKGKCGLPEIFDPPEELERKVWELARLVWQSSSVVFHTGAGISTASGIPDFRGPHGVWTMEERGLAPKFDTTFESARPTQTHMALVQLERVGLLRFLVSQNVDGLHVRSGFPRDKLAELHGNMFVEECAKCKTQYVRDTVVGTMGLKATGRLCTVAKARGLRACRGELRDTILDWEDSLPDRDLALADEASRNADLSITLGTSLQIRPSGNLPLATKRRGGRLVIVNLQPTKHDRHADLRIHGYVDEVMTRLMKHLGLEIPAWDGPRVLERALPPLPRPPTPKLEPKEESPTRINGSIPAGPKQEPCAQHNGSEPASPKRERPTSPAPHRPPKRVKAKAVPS
Method: FIGS. 1A-F illustrate the identification of novel SIRT6 activators. (1A) Compound libraries BML-2803, BML-2800, and an additional set of 178 molecules were screened at 100 μM for their ability to stimulate SIRT6 (1 μM) deacetylation of H3K9ac peptide (20 μM) in the presence of 0.5 mM NAD^+. SIRT6 activity was measured by HPLC quantification of H3K9ac and deacetylated product (inset) and fold activations relative to DMSO control were determined and compiled. (1B) Fold-activation of SIRT6 (1 μM) determined in the presence of either 0-400 μM CL4, 0-150 μM TTNPB, 0-100 μM Lysophosphatidic acid (LPA), or 0-200 μM linoleoylglycine (LGly). Maximum fold-activation and EC50 determined by sigmoidal curve fit. […] Constants Km, H3K9ac and kcat were determined by fitting data to Michaelis-Menten equation. (1D) Fold-activations of SIRT1 (0.1 μM), SIRT2 (0.2 μM), SIRT3 (1 μM), SIRT5 (2 μM), and SIRT6 (1 μM) determined in the presence of CL4 (100 μM), TTNPB (50 μM), and LPA (50 μM) relative to DMSO control against 20 μM H3K9ac peptide and 0.5 mM NAD^+. […]
FIGS. 2A-D show results characterizing SIRT6 activator CL5D. […] (2B) SIRT6 demyristoylase activity determined in the presence of 0-25 μM H3K9myr peptide, 0.5 mM NAD^+ and 5% DMSO (•), 12.5 μM CL5D (▪), 25 μM CL5D (♦), and 50 μM CL5D (▴). […]

SIRT6 [3] = target: T1, SIRT6; assay: Small molecule SIRT6 activator screen (H3K9ac peptide deacetylation, HPLC); format: biochemical; settings: compound 100 μM; SIRT6 1 μM; H3K9ac peptide 20 μM; 0.5 mM NAD+
Method: Mastermix containing SIRT6, buffer, and H3K9ac peptide were distributed to wells using Microflex peristaltic dispenser (Beckman). Plates were spun and preheated to 37° C. before addition of NAD^+ using peristaltic dispenser. After 60 minutes reactions were quenched with 2% TFA final using peristaltic dispenser then sealed and spun again before in-house HPLC separation and quantification of substrate and product peptides. Reaction conditions were 1 μM SIRT6, 0.5 mM NAD^+, […] (4-16), 20 mM potassium phosphate pH 7.5, 10% DMSO, and either 10 or 100 μM compound determined by 10-fold dilution of stock library concentration.
All sirtuin deacylation assays were carried out at 37° C. in 20 mM potassium phosphate pH 7.5 with 0.5 mM NAD^+, 10% DMSO, and 20 μM H3K9ac or H3K9myr peptides, unless otherwise noted in legend, and quenched by the addition of 2% TFA final. Steady-state reactions were constrained to less than 20% substrate turnover to prevent product inhibition. A variety of times were required to monitor SIRT6 deacetylation (2-60 minutes) under this restraint given the ability to strongly activate catalysis. In these cases, specific activities were determined and either reported as is or as fold-activation of specific activity. […] Deacetylation reactions were analyzed using a gradient of 33-100% B (30% acetonitrile with 0.05% TFA) in 8 min at 1.6 mL min^−1. Demyristoylation reactions were analyzed using a gradient of 3 to 100% B (acetonitrile with 0.05% TFA) in 10 min at 1.6 mL min^−1. The product and substrate peaks were quantified and ratio of these allowed for quantification of product formation.

| SMILES | micelle formation (in words) [1] | kcat (SIRT6 [2]) | F.A. (fold-activation of SIRT6 relative to DMSO control) (SIRT6 [3]) | concentration at which micelle formation was observed [1] |
| --- | --- | --- | --- | --- |
| O=C(O)c1ccc2c(c1)C(=O)N(c1ccc(NC(=O)c3ccc(Cl)cc3Cl)c(Cl)c1)C2=O [CL-4, 2-(3-chloro-4-(2,4-dichlorobenzamido)phenyl)-1,3-dioxoisoindoline-5-carboxylic acid] | not observed to form micelles | 1.5 ± 0.3 s^−1 × 10^−3 | 18 fold |  |
| CCCCC/C=C\C/C=C\CCCCCCCC(=O)NCC(=O)O [N-Linoleoylglycine, linoleoyl-glycine, reference compound] |  | 2.8 ± 0.1 s^−1 × 10^−3 | 29 fold | > 300 µM |
